Measurements taken from the NIST ThermoML archive (doi:10.1021/je050116g).

What was measured:
[1] = relative permittivity at various frequencies (dimensionless); xn = mol fraction of the nth substance listed; conditions: 298.15 K, 101.33 kPa, Liquid, Frequency=0.03 MHz, Parallel plate capacitor
[2] = xn = mol fraction of the nth substance listed; conditions: 298.15 K, 101.33 kPa, Liquid
[3] = 298.15 K; 101.33 kPa; Liquid

CCCCCCCCCCCC [dodecane] + CO
Conditions	mass density [kg/m3]	relative permittivity
[1], x2 = 0.000771	–	2.00822
[1], x2 = 0.001621	–	2.00927
[1], x2 = 0.00274	–	2.01066
[1], x2 = 0.003489	–	2.01159
[1], x2 = 0.004562	–	2.01293
[1], x2 = 0.005874	–	2.01448
[1], x2 = 0.008056	–	2.01694
[1], x2 = 0.01061	–	2.01951
[1], x2 = 0.0131	–	2.02187
[1], x2 = 0.01491	–	2.0235
[1], x2 = 0.01897	–	2.02697
[1], x2 = 0.02456	–	2.03155
[1], x2 = 0.03063	–	2.03644
[1], x2 = 0.03798	–	2.04263
[1], x2 = 0.04663	–	2.05023
[1], x2 = 0.05524	–	2.05834
[1], x2 = 0.06621	–	2.06954
[1], x2 = 0.08007	–	2.08561
[2], x2 = 0.00135	745.406	–
[2], x2 = 0.00185	745.4	–
[2], x2 = 0.00406	745.379	–
[2], x2 = 0.00925	745.332	–
[2], x2 = 0.01113	745.324	–
[2], x2 = 0.01828	745.284	–
[2], x2 = 0.02969	745.265	–
[2], x2 = 0.0464	745.259	–
[2], x2 = 0.0642	745.271	–
[2], x2 = 0.08321	745.289	–
[2], x2 = 0.09518	745.306	–

CCO [ethanol]
Conditions	mass density [kg/m3]
[3]	785.055

CCCCCCCO [heptan-1-ol]
Conditions	mass density [kg/m3]
[3]	818.746

CCCCCCCO [heptan-1-ol] + CCCCCCCCCCCC
Conditions	mass density [kg/m3]	relative permittivity
[1], x1 = 0.000586	–	2.00786
[1], x1 = 0.001199	–	2.00865
[1], x1 = 0.001873	–	2.00953
[1], x1 = 0.002621	–	2.01049
[1], x1 = 0.003507	–	2.01164
[1], x1 = 0.004712	–	2.01319
[1], x1 = 0.006033	–	2.01489
[1], x1 = 0.007493	–	2.0167
[1], x1 = 0.009131	–	2.01867
[1], x1 = 0.01103	–	2.02082
[1], x1 = 0.01345	–	2.02338
[1], x1 = 0.01639	–	2.02628
[1], x1 = 0.02108	–	2.03055
[1], x1 = 0.02571	–	2.03449
[1], x1 = 0.03171	–	2.03943
[1], x1 = 0.0379	–	2.0444
[1], x1 = 0.04415	–	2.0494
[1], x1 = 0.0517	–	2.05543
[1], x1 = 0.06004	–	2.06219
[1], x1 = 0.07079	–	2.07111
[1], x1 = 0.08135	–	2.08016
[1], x1 = 0.09339	–	2.09089
[1], x1 = 0.1085	–	2.10505
[2], x1 = 0.00183	745.491	–
[2], x1 = 0.00384	745.55	–
[2], x1 = 0.00719	745.657	–
[2], x1 = 0.01509	745.934	–
[2], x1 = 0.02602	746.357	–
[2], x1 = 0.03537	746.74	–
[2], x1 = 0.04943	747.341	–
[2], x1 = 0.06486	748.019	–
[2], x1 = 0.08181	748.778	–
[2], x1 = 0.1023	749.709	–

CCCCCCO [hexan-1-ol]
Conditions	mass density [kg/m3]
[3]	815.275
